The target in the assay is T1, NanoLuc-hACKR3 (Homo sapiens, UniProt P25106).
T1 construct: expressed in transfected cells; host or cells: HEK293T (transient, PEI; membrane preparation)
Briefly: NanoBRET binding study (displacement of fluorescently labelled CXCL12). The settings on record: displacement of 0.3 nM CXCL12-AF647; membranes of HEK293T cells expressing NanoLuc-ACKR3; 1 hour incubation; read-out: Affinity. The method, then:
Membranes of HEK293T cells that transiently express the NanoLuc-hACKR3 were produced. 2 million HEK293T cells were seeded per […] dish and were transfected the next day using a DNA/PEI-mix containing 0.25 μg plasmid DNA encoding for the ACKR3, 4.75 μg pcDEF3 plasmid DNA and 30 μg linear PEI. Two days after transfection, cells were collected in PBS and pelleted by centrifugation. Cell pellets were resuspended in ice-cold membrane buffer (15 mM Tris, 0.3 mM EDTA, 2 mM MgCl2, pH 7.4 at 4° C.) and were dounce-homogenized on ice by plunging the pestle […] with 1500 rpm. Cell homogenates were subsequently subjected to two freeze-thaw cycles using liquid nitrogen. Next, the cell homogenates were centrifuged at 40,000 g and pellets were resuspended in Tris-sucrose buffer (20 mM Tris, 250 mM Sucrose, pH 7.4 at 4° C.). Finally, the membrane samples were homogenized using a 23-gauge needle, snap-frozen with liquid nitrogen and stored until further experimentation at −80° C.
Binding reactions were measured in triplicate on white low-volume 384-well plates and started by combining 0.3 nM fluorescently labelled CXCL12 (CXCL12 labelled with a AF647® dye in a molar ratio of dye:peptide of 1:1, purchased from ALMAC, h-SDF-1α (AF647®), cat. No. CAF-11, Sequence:
[…](Ale xa647®)ALN), increasing concentrations of test compound (10^−5 M-10^−11 M) with 35 ng membranes (protein content) per well of HEK293T cells expressing the NanoLuc-ACKR3. All dilutions were prepared in HBSS supplemented with 0.2% BSA. After assembling the binding reaction, the plate was flash-centrifuged at 500 g. Binding reactions were then incubated for 1 hour after which NanoGlo substrate was added (310 times diluted from stock concentration) to a final volume of 13.5 μL. The reaction plate was again pulse-centrifuged to 500 g and the total light intensity was measured for 460 nm wavelength with 80 nm bandwidth and separately for wavelengths ≥610 nm using the PHERAstar-FSX (BMG Labtech, Ortenberg, Germany) with a dual emission filter. The ratio of light intensities (>610 nm over 460 nm) is a measure for the relative binding of CXCL12-A647 to the NanoLuc-ACKR3. The pharmacological data are presented in Appendix 1.

pKi: −log10 of the molar value.

T1 sequence (P25106 whole entry): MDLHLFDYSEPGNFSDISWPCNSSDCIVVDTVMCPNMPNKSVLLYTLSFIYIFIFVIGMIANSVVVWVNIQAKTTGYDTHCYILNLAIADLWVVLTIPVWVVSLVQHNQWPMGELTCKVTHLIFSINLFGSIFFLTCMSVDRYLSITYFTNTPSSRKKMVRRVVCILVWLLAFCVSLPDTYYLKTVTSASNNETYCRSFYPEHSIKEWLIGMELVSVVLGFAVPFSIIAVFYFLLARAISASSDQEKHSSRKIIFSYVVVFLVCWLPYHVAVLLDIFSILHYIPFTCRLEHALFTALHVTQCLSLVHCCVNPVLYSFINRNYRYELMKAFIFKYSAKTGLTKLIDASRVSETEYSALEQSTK

As to `O=C(NCC1CCN(C/C=C/c2ccccc2)CC1)c1cn(-c2ccc(F)cc2F)nn1` [Molecule 61], the pKi was at least 7.00. The value for `O=C(NCC1CCN(C/C=C/c2ccccc2)CC1)c1csc(-c2ccc(F)cc2F)n1` [Molecule 82] was 5.00 to 6.00; that for `O=C(NCC1CCN(C2CCC2)CC1)c1cc(-c2ccc(F)cc2F)on1` [Molecule 18] was 6.00 to 7.00; that for `O=C(NCC1CCN(CCCCc2ccccc2)CC1)c1cc(-c2ccc(F)cc2F)on1` [Molecule 45] was at least 7.00. As for `O=C(NCC1CCN(Cc2ccccc2)CC1)c1cc(-c2ccc(F)cc2F)on1` [Molecule 17], the pKi was 6.00 to 7.00.

Take `O=C(NCC1CCN(Cc2ccc([N+](=O)[O-])cc2)CC1)c1cc(-c2ccc(F)cc2F)on1` [Molecule 43]: the pKi was below 5.00. As to `O=C(NCC1CCN(C(=O)c2cnc3ccccc3n2)CC1)c1cc(-c2ccc(F)cc2F)on1` [Molecule 12], the pKi was 5.00 to 6.00. The value for `Cc1ccc(CN2CCC(CNC(=O)c3cc(-c4ccc(F)cc4F)on3)CC2)cc1` [Molecule 33] was at least 7.00; that for `NS(=O)(=O)c1ccc(CN2CCC(CNC(=O)c3cc(-c4ccc(F)cc4F)on3)CC2)cc1` [Molecule 49] was 6.00 to 7.00. Next, `O=C(NCC1CCN(C/C=C/c2ccccc2)CC1)c1cc(-c2ccc(F)cc2F)on1` [Molecule 42]: at least 7.00; `O=C(NCC1CCN(Cc2ccc(OC(F)(F)F)cc2)CC1)c1cc(-c2ccc(F)cc2F)on1` [Molecule 38]: below 5.00. Next, `COC(=O)c1ccc(CN2CCC(CNC(=O)c3cc(-c4ccc(F)cc4F)on3)CC2)cc1` [Molecule 36]: at least 7.00. Turning to `O=C(NCC1CCN(C2CCCCC2)CC1)c1cc(-c2ccccc2)on1` [Molecule 2], the pKi was below 5.00. Next, `O=C(NCC1CCN(C(=O)C2CCCCC2)CC1)c1cc(-c2ccc(F)cc2F)on1` [Molecule 9]: below 5.00; `O=C(NCC1CCN(C/C=C/c2ccccc2)CC1)c1ncc(-c2ccc(F)cc2F)s1` [Molecule 85]: at least 7.00. With `COc1ccccc1CN1CCC(CNC(=O)c2cc(-c3ccc(F)cc3F)on2)CC1` [Molecule 25], the pKi was at least 7.00. The value for `O=C(NCC1CCN(C2CCCCCC2)CC1)c1cc(-c2ccc(F)cc2F)on1` [Molecule 20] was 6.00 to 7.00. On to `O=C(NCC1CCN(CCc2ccccc2)CC1)c1cc(-c2ccc(F)cc2F)on1` [Molecule 23], for which the pKi was 6.00 to 7.00. As for `O=C(NCC1CCN(C/C=C/c2ccccc2)CC1)c1cc(-c2ccc(F)cc2F)n[nH]1` [Molecule 58], the pKi is 5.00 to 6.00. Next, `O=C(NCC1CCN(C/C=C/c2ccccc2)CC1)c1cnc(-c2ccc(F)cc2F)s1` [Molecule 87]: at least 7.00. The value for `COc1cccc(CN2CCC(CNC(=O)c3cc(-c4ccc(F)cc4F)on3)CC2)c1` [Molecule 26] was at least 7.00; that for `COc1cc(CN2CCC(CNC(=O)c3cc(-c4ccc(F)cc4F)on3)CC2)cc(OC)c1OC` [Molecule 47] was 6.00 to 7.00. The value for `O=C(NCC1CCN(C/C=C/c2ccccc2)CC1)c1cc(-c2ccc(F)cc2F)no1` [Molecule 92] was at least 7.00; that for `O=C(NCC1CCN(S(=O)(=O)C2CC2)CC1)c1cc(-c2ccc(F)cc2F)on1` [Molecule 14] was below 5.00; that for `O=C(NCC1CCN(CCCc2ccccc2)CC1)c1cc(-c2ccc(F)cc2F)on1` [Molecule 24] was at least 7.00. With `O=C(NCC1CCN(C/C=C/c2ccccc2)CC1)c1nc(-c2ccc(F)cc2F)cs1` [Molecule 80], the pKi is 5.00 to 6.00. Next, `O=C(NCC1CCN(C/C=C/c2ccccc2)CC1)c1nnc(-c2ccc(F)cc2F)s1` [Molecule 89]: at least 7.00.

On to `O=C(NCC1CCN(C/C=C/c2ccccc2)CC1)c1nnn(-c2ccc(F)cc2F)n1` [Molecule 72], for which the pKi was 6.00 to 7.00. The value for `O=C(NCC1CCN(C/C=C/c2ccccc2)CC1)c1nnc(-c2ccc(F)cc2F)o1` [Molecule 96] was at least 7.00; that for `CC(=O)Nc1ccc(CN2CCC(CNC(=O)c3cc(-c4ccc(F)cc4F)on3)CC2)cc1` [Molecule 39] was at least 7.00; that for `O=C(NCC1CCN(Cc2ccccn2)CC1)c1cc(-c2ccc(F)cc2F)on1` [Molecule 28] was 6.00 to 7.00. Take `O=C(NCC1CCN(C/C=C/c2ccccc2)CC1)c1nc(-c2ccc(F)cc2F)c[nH]1` [Molecule 77]: the pKi is 5.00 to 6.00. The value for `CN(C)C(=O)c1ccc(CN2CCC(CNC(=O)c3cc(-c4ccc(F)cc4F)on3)CC2)cc1` [Molecule 41] was 5.00 to 6.00; that for `COc1ccc(CN2CCC(CNC(=O)c3cc(-c4ccc(F)cc4F)on3)CC2)cc1OC` [Molecule 46] was at least 7.00.

For `O=C(NCC1CCN(C(=O)C2CCC2)CC1)c1cc(-c2ccc(F)cc2F)on1` [Molecule 8], the pKi was below 5.00. For the compound `CN(C)c1ccc(CN2CCC(CNC(=O)c3cc(-c4ccc(F)cc4F)on3)CC2)cc1` [Molecule 37], the pKi was at least 7.00.

Consider `O=C(NCC1CCN(c2ccccc2)CC1)c1cc(-c2ccc(F)cc2F)on1` [Molecule 32], for which the pKi was below 5.00. For `O=C(NCC1CCN(CC2CCCC2)CC1)c1cc(-c2ccc(F)cc2F)on1` [Molecule 16], the pKi was 6.00 to 7.00. Next, `O=C(NCC1CCN(Cc2ccc(F)cc2)CC1)c1cc(-c2ccc(F)cc2F)on1` [Molecule 52]: 6.00 to 7.00; `O=C(O)c1ccc(CN2CCC(CNC(=O)c3cc(-c4ccc(F)cc4F)on3)CC2)cc1` [Molecule 40]: 5.00 to 6.00; `COc1ccc(CN2CCC(CNC(=O)c3cc(-c4ccc(F)cc4F)on3)CC2)cc1` [Molecule 27]: at least 7.00. Turning to `O=C(NCC1CCN(C/C=C/c2ccccc2)CC1)c1ncc(-c2ccc(F)cc2F)o1` [Molecule 94], the pKi is 6.00 to 7.00. Next, `O=C(NCC1CCN(Cc2ccc(Br)cc2)CC1)c1cc(-c2ccc(F)cc2F)on1` [Molecule 53]: 6.00 to 7.00; `O=C(NCC1CCN(C2CCCC2)CC1)c1cc(-c2ccc(F)cc2F)on1` [Molecule 19]: 6.00 to 7.00; `O=C(NCC1CCN(Cc2ccc(Cl)cc2)CC1)c1cc(-c2ccc(F)cc2F)on1` [Molecule 34]: at least 7.00. `O=C(NCC1CCN(C(=O)C2CC2)CC1)c1cc(-c2ccc(F)cc2F)on1` [Molecule 7]: the pKi was below 5.00. The value for `N#Cc1ccc(CN2CCC(CNC(=O)c3cc(-c4ccc(F)cc4F)on3)CC2)cc1` [Molecule 35] was below 5.00; that for `O=C(NCC1CCN(Cc2ccc(C(F)(F)F)cc2)CC1)c1cc(-c2ccc(F)cc2F)on1` [Molecule 51] was below 5.00; that for `O=C(NCC1CCN(Cc2ccncc2)CC1)c1cc(-c2ccc(F)cc2F)on1` [Molecule 30] was 5.00 to 6.00. Consider `O=C(NCC1CCN(C/C=C/c2ccccc2)CC1)c1cnn(-c2ccc(F)cc2F)n1` [Molecule 68], for which the pKi was 5.00 to 6.00. The value for `O=C(NCC1CCN(CC2CCCCC2)CC1)c1cc(-c2ccc(F)cc2F)on1` [Molecule 22] was 5.00 to 6.00; that for `O=C(NCC1CCN(Cc2ccc(O)cc2)CC1)c1cc(-c2ccc(F)cc2F)on1` [Molecule 50] was at least 7.00.

`CS(=O)(=O)c1ccc(CN2CCC(CNC(=O)c3cc(-c4ccc(F)cc4F)on3)CC2)cc1` [Molecule 48]: the pKi was 5.00 to 6.00. Next, `O=C(NCC1CCN(Cc2cccnc2)CC1)c1cc(-c2ccc(F)cc2F)on1` [Molecule 29]: 6.00 to 7.00; `O=C(NCC1CCN(C/C=C/c2ccccc2)CC1)c1nc(-c2ccc(F)cc2F)no1` [Molecule 99]: 6.00 to 7.00; `O=C(NCC1CCN(C/C=C/c2ccccc2)CC1)c1cnn(-c2ccc(F)cc2F)c1` [Molecule 64]: 6.00 to 7.00. Take `CN(C)C(=O)c1cccc(CN2CCC(CNC(=O)c3cc(-c4ccc(F)cc4F)on3)CC2)c1` [Molecule 31]: the pKi was 5.00 to 6.00.

These data come from patent publication US20250170117A1, “MODULATORS OF ACKR3 AND USES THEREOF” (InterAx Biotech AG, priority 2022, published 2025).
